Experimental data published in patent US20250228835A1, “PYRIDINYLOXYPYRIDINES AND RELATED COMPOUNDS AND THEIR USE IN TREATING MEDICAL CONDITIONS” (Rectify Pharmaceuticals, Inc., priority 2024, published 2025).

These molecules were tested against T1, ABCC6 WT (Homo sapiens, UniProt O95255) (assay: ABCC6 WT assay: HiBit protein expression). Settings: HEK-293 cells transiently expressing HiBit-tagged ABCC6 WT; 24 h treatment; top concentration 20 μM; read-out: ABCC6 WT EC50, Emax.
T1 construct: expressed in transfected cells; host or cells: HEK-293 (transient, Lipofectamine 2000)
T1 sequence (O95255 whole entry): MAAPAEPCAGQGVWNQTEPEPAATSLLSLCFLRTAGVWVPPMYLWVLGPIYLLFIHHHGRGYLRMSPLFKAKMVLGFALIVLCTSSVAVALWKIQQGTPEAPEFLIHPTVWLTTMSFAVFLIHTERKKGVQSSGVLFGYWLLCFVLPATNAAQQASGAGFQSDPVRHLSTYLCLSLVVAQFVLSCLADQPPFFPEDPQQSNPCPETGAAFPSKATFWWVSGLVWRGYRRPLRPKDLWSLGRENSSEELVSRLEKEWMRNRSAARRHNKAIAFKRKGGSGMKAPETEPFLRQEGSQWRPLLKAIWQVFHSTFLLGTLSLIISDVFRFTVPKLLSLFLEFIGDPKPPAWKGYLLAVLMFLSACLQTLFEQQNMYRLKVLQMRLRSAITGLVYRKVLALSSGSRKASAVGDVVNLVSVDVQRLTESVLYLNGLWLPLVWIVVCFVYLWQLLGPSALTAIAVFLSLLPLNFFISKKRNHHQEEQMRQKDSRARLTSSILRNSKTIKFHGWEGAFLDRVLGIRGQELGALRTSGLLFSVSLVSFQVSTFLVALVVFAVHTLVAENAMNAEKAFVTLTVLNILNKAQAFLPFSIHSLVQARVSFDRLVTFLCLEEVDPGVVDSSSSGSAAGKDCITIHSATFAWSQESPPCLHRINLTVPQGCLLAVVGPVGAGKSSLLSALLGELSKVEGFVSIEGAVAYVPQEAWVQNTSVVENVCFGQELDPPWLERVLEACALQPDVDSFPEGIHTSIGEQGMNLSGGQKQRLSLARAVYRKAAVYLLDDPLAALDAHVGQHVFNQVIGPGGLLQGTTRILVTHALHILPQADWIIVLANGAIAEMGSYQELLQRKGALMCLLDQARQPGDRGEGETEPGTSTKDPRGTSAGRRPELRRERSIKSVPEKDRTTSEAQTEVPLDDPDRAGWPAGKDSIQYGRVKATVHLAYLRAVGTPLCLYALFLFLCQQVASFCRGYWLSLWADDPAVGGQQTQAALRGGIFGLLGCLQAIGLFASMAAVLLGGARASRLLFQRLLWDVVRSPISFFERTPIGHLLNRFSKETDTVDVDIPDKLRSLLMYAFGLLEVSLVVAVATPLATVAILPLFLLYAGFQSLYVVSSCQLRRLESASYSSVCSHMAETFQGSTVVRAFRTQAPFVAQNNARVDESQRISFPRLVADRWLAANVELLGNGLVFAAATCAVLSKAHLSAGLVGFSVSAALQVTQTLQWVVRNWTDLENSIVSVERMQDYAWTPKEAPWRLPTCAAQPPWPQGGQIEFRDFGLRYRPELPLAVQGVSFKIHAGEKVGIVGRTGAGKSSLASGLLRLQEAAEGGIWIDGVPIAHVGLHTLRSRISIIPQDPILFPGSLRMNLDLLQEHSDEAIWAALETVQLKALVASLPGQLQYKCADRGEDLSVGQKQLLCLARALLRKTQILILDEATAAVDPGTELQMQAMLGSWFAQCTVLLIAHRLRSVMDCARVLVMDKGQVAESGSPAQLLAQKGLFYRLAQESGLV
Type: cell-based
Outline: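 HEK-293 cells transiently transfected with HiBit-tagged human ABCC6 WT cDNA, seeded 24 h post-transfection, treated 24 h at 37° C with ten 2-fold doses (top 20 μM final, 0.15% DMSO). HiBit lytic luminescence reports protein expression; Emax and EC50 derived.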

EC50, < 1 µM:
Cc1cc(C(F)F)nc(C)c1Oc1nc(-c2cncc(C#N)c2)ccc1NS(C)(=O)=O [Compound I-230], COCc1cncc(-c2ccc(NS(C)(=O)=O)c(Oc3c(C)cc(C)nc3C)n2)c1 [Compound I-231], Cc1cc(C)c(Oc2nc(-c3cncc(C4CC4)c3)ccc2NS(C)(=O)=O)c(C)n1 [Compound I-232], Cc1nc(C)c(Oc2nc(-c3cncc(C#N)c3)ccc2NS(C)(=O)=O)c(C)n1 [Compound I-234], Cc1cc(C2CC2)nc(C)c1Oc1nc(-c2cncc(C#N)c2)ccc1NS(=O)(=O)C1COC1 [Compound I-235], Cc1cc(C2CC2)nc(C)c1Oc1nc(-c2cncc(Cl)c2)ccc1NS(=O)(=O)C1COC1 [Compound I-236], Cc1cc(C)c(Oc2nc(-c3cncc(Cl)c3)ccc2NS(=O)(=O)C2COC2)c(C)n1 [Compound I-237]
